Laboratory results from patent US11078202B2, “β-lactamase inhibitor and use thereof” (priority 2018, dated 2021).
Where a name gives a salt, the structure may show the parent alone.

Columns and labels:
Format in all cases: cell-based
[1] = tested on: Klebsiella pneumoniae XNWB 0001; experiment: MIC assay of test compounds combined with ceftazidime (8 μg/mL); conditions: ceftazidime 8 μg/mL fixed
Description: (§1) The bacterial strains used for the minimum inhibitory concentration (MIC) test were frozen in a −80° C. ULT freezer and thawed 2 days before use. A small amount of frozen bacterial strains were scraped using a sterile inoculating loop, streaked onto a TSA solid culture dish for inoculation, and then cultured for 20-24 h at 35±2° C. in a normal atmospheric environment. 5-10 colonies with similar morphology were picked from the culture dish using a sterile inoculating loop and then re-streaked onto a suitable solid culture dish. Then the dish was placed into a normal incubator for culture for 20-24 h at 35±2° C. 5-10 single bacterial colonies were picked from the solid culture dish, resuspended in 500 μL of 0.9% NaCl, and adjusted to an OD600 of 0.1-0.15 with a spectrophotometer. The bacteria were then diluted 300-fold with 1.1×CAMHB. […] Dilution of test compounds: […] 2 μL of each compound in the dilution master plate of the test compounds was transferred to the corresponding well of the assay plates. In the mean time, 2 μL of 100% DMSO was transferred to the compound-free wells (GC and SC wells). (1) 8 μL of imipenem in the additive plate of imipenem was transferred to the corresponding wells of the assay plates; (2) 8 μL of ceftazidime in the additive plate of ceftazidime was transferred to the corresponding wells of the assay plates; (3) 8 μL of ampicillin in the additive plate of ampicillin was transferred to the corresponding wells of the assay plates. 90 μL of corresponding bacterial inocula were added to wells (except for SC wells) of the assay plates. After addition, the 6 assay plates were covered by sterile covers. The mixtures in the assay plates were centrifuged by a centrifuge at 1000 rpm for 30 s, and mixed uniformly by oscillating with a microplate oscillator at 800 rpm for 1 min, and then cultured in a common incubator for 16-20 h at 35±2° C. The minimum inhibitory concentration of each compound was recorded by reference to guidelines from the Clinical and Laboratory Standards Institute. […] The effect of the test compounds in combination with imipenem, ceftazidime, and ampicillin was also tested. […] The bacterial inocula in the assay plates were resuscitated from TSA and diluted in CAMHB, while growth controls (GC wells) and sterile controls (SC wells) were set up in the assay plates. The minimum inhibitory concentration of each compound combination against different bacteria was observed and recorded after the assay plates were incubated in a common incubator at 35±2° C. for 16-20 h, and the results are shown in Tables 1-3.

[2] = tested on: Acinetobacter baumannii XNWB 0007; experiment: as above; conditions: ceftazidime 8 μg/mL fixed
Description: as §1

[3] = tested on: Klebsiella pneumoniae XNWB 0005; experiment: as above; conditions: ceftazidime 8 μg/mL fixed
Description: as §1

[4] = tested on: Klebsiella pneumoniae XNWB 0006; experiment: as above; conditions: ceftazidime 8 μg/mL fixed
Description: as §1

[5] = tested on: Klebsiella pneumoniae XNWB 0003; experiment: as above; conditions: ceftazidime 8 μg/mL fixed
Description: as §1

[6] = tested on: Klebsiella pneumoniae XNWB 0002; experiment: as above; conditions: ceftazidime 8 μg/mL fixed
Description: as §1

[7] = tested on: Klebsiella pneumoniae XNWB 0004; experiment: as above; conditions: ceftazidime 8 μg/mL fixed
Description: as §1

[8] = tested on: Pseudomonas aeruginosa XNWB 0008; experiment: as above; conditions: ceftazidime 8 μg/mL fixed
Description: as §1

[9] = tested on: Klebsiella pneumoniae XNWB 0001; experiment: MIC assay of test compounds combined with imipenem (4 μg/mL); conditions: imipenem 4 μg/mL fixed
Description: as §1

[10] = tested on: Acinetobacter baumannii XNWB 0007; experiment: as above; conditions: imipenem 4 μg/mL fixed
Description: as §1

[11] = tested on: Klebsiella pneumoniae XNWB 0005; experiment: as above; conditions: imipenem 4 μg/mL fixed
Description: as §1

[12] = tested on: Klebsiella pneumoniae XNWB 0006; experiment: as above; conditions: imipenem 4 μg/mL fixed
Description: as §1

[13] = tested on: Klebsiella pneumoniae XNWB 0003; experiment: as above; conditions: imipenem 4 μg/mL fixed
Description: as §1

[14] = tested on: Klebsiella pneumoniae XNWB 0002; experiment: as above; conditions: imipenem 4 μg/mL fixed
Description: as §1

[15] = tested on: Klebsiella pneumoniae XNWB 0004; experiment: as above; conditions: imipenem 4 μg/mL fixed
Description: as §1

[16] = tested on: Pseudomonas aeruginosa XNWB 0008; experiment: as above; conditions: imipenem 4 μg/mL fixed
Description: as §1

Structure (SMILES)	The minimum concentration of test compounds combined with ceftazidime (8 μg/mL) for bacteriostasis [1]	The minimum concentration of test compounds combined with ceftazidime (8 μg/mL) for bacteriostasis [2]	The minimum concentration of test compounds combined with ceftazidime (8 μg/mL) for bacteriostasis [3]	The minimum concentration of test compounds combined with ceftazidime (8 μg/mL) for bacteriostasis [4]	The minimum concentration of test compounds combined with ceftazidime (8 μg/mL) for bacteriostasis [5]	The minimum concentration of test compounds combined with ceftazidime (8 μg/mL) for bacteriostasis [6]	The minimum concentration of test compounds combined with ceftazidime (8 μg/mL) for bacteriostasis [7]	The minimum concentration of test compounds combined with ceftazidime (8 μg/mL) for bacteriostasis [8]	The minimum concentration of test compounds combined with imipenem (4 μg/mL) for bacteriostasis [9]	The minimum concentration of test compounds combined with imipenem (4 μg/mL) for bacteriostasis [10]	The minimum concentration of test compounds combined with imipenem (4 μg/mL) for bacteriostasis [11]	The minimum concentration of test compounds combined with imipenem (4 μg/mL) for bacteriostasis [12]	The minimum concentration of test compounds combined with imipenem (4 μg/mL) for bacteriostasis [13]	The minimum concentration of test compounds combined with imipenem (4 μg/mL) for bacteriostasis [14]	The minimum concentration of test compounds combined with imipenem (4 μg/mL) for bacteriostasis [15]	The minimum concentration of test compounds combined with imipenem (4 μg/mL) for bacteriostasis [16]
NCc1cc([C@@H]2CC3(CC3)[C@@H]3CN2C(=O)N3OS(=O)(=O)O)no1 [Example 35, (1R,4S)-4-(5-(aminomethyl)-isoxazol-3-yl)-6-oxo-5,7-diazaspiro[bicyclo[3.2.1]octane-2,1′-cyclopropan]-7-yl sulfate]	A (A: <8 μg/mL)	C (C: 16-128 μg/mL)	A (A: <8 μg/mL)	A (A: <8 μg/mL)	A (A: <8 μg/mL)	A (A: <8 μg/mL)	A (A: <8 μg/mL)	C (C: 16-128 μg/mL)	A (A: <8 μg/mL)	C (C: 16-128 μg/mL)	A (A: <8 μg/mL)	A (A: <8 μg/mL)	A (A: <8 μg/mL)	A (A: <8 μg/mL)	A (A: <8 μg/mL)	B (B: 8-16 μg/mL)
O=C1N2C[C@H](N1OS(=O)(=O)O)C1(CC1)C[C@H]2c1ccon1 [Example 54, (1R,4S)-4-(isoxazol-3-yl)-6-oxo-5,7-diazaspiro[bicyclo[3.2.1]octane-2,1′-cyclopropan]-7-yl sulfate]	B (B: 8-16 μg/mL)	C (C: 16-128 μg/mL)	C (C: 16-128 μg/mL)	A (A: <8 μg/mL)	B (B: 8-16 μg/mL)	A (A: <8 μg/mL)	C (C: 16-128 μg/mL)	C (C: 16-128 μg/mL)	A (A: <8 μg/mL)	C (C: 16-128 μg/mL)	A (A: <8 μg/mL)	A (A: <8 μg/mL)	A (A: <8 μg/mL)	A (A: <8 μg/mL)	A (A: <8 μg/mL)	C (C: 16-128 μg/mL)
NCCCc1nnc([C@@H]2CC3(CC3)[C@@H]3CN2C(=O)N3OS(=O)(=O)O)o1 [Example 6, sodium (1R,4S)-4-(5-(3-aminopropyl)-1,3,4-oxadiazol-2-yl)-6-oxo-5,7-diazaspiro [bicycle[3.2.1]octane-2,1′-cyclopropan]-7-yl sulfate]	A (A: <8 μg/mL)	C (C: 16-128 μg/mL)	B (B: 8-16 μg/mL)	A (A: <8 μg/mL)	B (B: 8-16 μg/mL)	A (A: <8 μg/mL)	B (B: 8-16 μg/mL)	C (C: 16-128 μg/mL)	A (A: <8 μg/mL)	B (B: 8-16 μg/mL)	A (A: <8 μg/mL)	A (A: <8 μg/mL)	A (A: <8 μg/mL)	A (A: <8 μg/mL)	A (A: <8 μg/mL)	B (B: 8-16 μg/mL)
NC[C@H](O)c1nnc([C@@H]2CC3(CC3)[C@@H]3CN2C(=O)N3OS(=O)(=O)O)o1 [Example 62, (1R,4S)-4-(5-((S)-2-amino-1-hydroxyethyl)-1,3,4-oxadiazol-2-yl)-6-oxo-5,7-diazaspiro[bicyclo[3.2.1]octane-2,1′-cyclopropane]-7-yl hydrogen sulfate]									A (A: <8 μg/mL)	A (A: <8 μg/mL)	A (A: <8 μg/mL)	A (A: <8 μg/mL)	A (A: <8 μg/mL)	A (A: <8 μg/mL)	A (A: <8 μg/mL)	B (B: 8-16 μg/mL)
NC[C@@H](O)c1nnc([C@@H]2CC3(CC3)[C@@H]3CN2C(=O)N3OS(=O)(=O)O)o1 [Example 61]									A (A: <8 μg/mL)	B (B: 8-16 μg/mL)	A (A: <8 μg/mL)	A (A: <8 μg/mL)	A (A: <8 μg/mL)	A (A: <8 μg/mL)	A (A: <8 μg/mL)	B (B: 8-16 μg/mL)
